Data: PubChem BioAssay AID2060510 (Molecular Pharmacology Branch, DTP, NCI, 2025)

Tested on: 439559-082-T-J2-PDC spheroids viability
Assay: Anticancer human tumor 439559-082-T-J2-PDC patient-derived colon adenocarcinoma cell line growth inhibition [GQUAD]
Details: for IC50: curve of first compound; for viability, T/C: stronger effect = lower value
How it was run: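 Viability of tumor cells grown as complex spheroids with endothelial and stromal cells, exposed to drug combinations. Top concentration at or near clinical Cmax (else 10 microM), diluted in half-log increments.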

[1] = second compound 0.0316 µM, first compound 0.0316 µM
[2] = second compound 0.0316 µM, first compound 0.1 µM
[3] = second compound 0.0316 µM, first compound 0.316 µM
[4] = second compound 0.0316 µM, first compound 1 µM
[5] = second compound 0.0316 µM, first compound 3.16 µM
[6] = second compound 0.0316 µM, first compound 10 µM
[7] = second compound 0.1 µM, first compound 0.0316 µM
[8] = second compound 0.1 µM, first compound 0.1 µM
[9] = second compound 0.1 µM, first compound 0.316 µM
[10] = second compound 0.1 µM, first compound 1 µM
[11] = second compound 0.1 µM, first compound 3.16 µM
[12] = second compound 0.1 µM, first compound 10 µM
[13] = second compound 0.316 µM, first compound 0.0316 µM
[14] = second compound 0.316 µM, first compound 0.1 µM
[15] = second compound 0.316 µM, first compound 0.316 µM
[16] = second compound 0.316 µM, first compound 1 µM
[17] = second compound 0.316 µM, first compound 3.16 µM
[18] = second compound 0.316 µM, first compound 10 µM
[19] = second compound 1 µM, first compound 0.0316 µM
[20] = second compound 1 µM, first compound 0.1 µM
[21] = second compound 1 µM, first compound 0.316 µM
[22] = second compound 1 µM, first compound 1 µM
[23] = second compound 1 µM, first compound 3.16 µM
[24] = second compound 1 µM, first compound 10 µM
[25] = second compound 3.16 µM, first compound 0.0316 µM
[26] = second compound 3.16 µM, first compound 0.1 µM
[27] = second compound 3.16 µM, first compound 0.316 µM
[28] = second compound 3.16 µM, first compound 1 µM
[29] = second compound 3.16 µM, first compound 3.16 µM
[30] = second compound 3.16 µM, first compound 10 µM
[31] = second compound 10 µM, first compound 0.0316 µM
[32] = second compound 10 µM, first compound 0.1 µM
[33] = second compound 10 µM, first compound 0.316 µM
[34] = second compound 10 µM, first compound 1 µM
[35] = second compound 10 µM, first compound 3.16 µM
[36] = second compound 10 µM, first compound 10 µM
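Note: spheroids exposed to the agents for 7 days before readout.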
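Throughout, for viability, T/C: percent of luminescence signal in DMSO vehicle wells taken as 100% viability.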

Structure (SMILES): CC(C)n1c(=O)n(C)c2cnc3cc(F)c(-c4ccc(OCCCN5CCCCC5)nc4)cc3c21 + CN(C)c1ccc(Nc2c3ccc(NC(=O)CCN4CCCC4)cc3nc3cc(NC(=O)CCN4CCCC4)ccc23)cc1
- IC50 (second compound 0.0316 µM): > 10000 nM
- IC50 (second compound 0.1 µM): > 10000 nM
- IC50 (second compound 0.316 µM): > 10000 nM
- IC50 (second compound 1 µM): > 10000 nM
- IC50 (second compound 3.16 µM): > 10000 nM
- IC50 (second compound 10 µM): > 10000 nM
- viability, T/C [1]: 108%
- viability, T/C [2]: 98.2%
- viability, T/C [3]: 118%
- viability, T/C [4]: 116%
- viability, T/C [5]: 122%
- viability, T/C [6]: 91.8%
- viability, T/C [7]: 105%
- viability, T/C [8]: 112%
- viability, T/C [9]: 115%
- viability, T/C [10]: 119%
- viability, T/C [11]: 113%
- viability, T/C [12]: 91.9%
- viability, T/C [13]: 94.5%
- viability, T/C [14]: 113%
- viability, T/C [15]: 115%
- viability, T/C [16]: 122%
- viability, T/C [17]: 117%
- viability, T/C [18]: 100%
- viability, T/C [19]: 101%
- viability, T/C [20]: 105%
- viability, T/C [21]: 111%
- viability, T/C [22]: 113%
- viability, T/C [23]: 109%
- viability, T/C [24]: 99.6%
- viability, T/C [25]: 105%
- viability, T/C [26]: 113%
- viability, T/C [27]: 121%
- viability, T/C [28]: 108%
- viability, T/C [29]: 117%
- viability, T/C [30]: 83.5%
- viability, T/C [31]: 100%
- viability, T/C [32]: 92%
- viability, T/C [33]: 99%
- viability, T/C [34]: 112%
- viability, T/C [35]: 112%
- viability, T/C [36]: 59.4%

Structure (SMILES): CC1COCCN1c1cc(-c2ccnn2C)c2ccnc(-c3ccn[nH]3)c2n1 (stereo not given) + CN(C)c1ccc(Nc2c3ccc(NC(=O)CCN4CCCC4)cc3nc3cc(NC(=O)CCN4CCCC4)ccc23)cc1
- IC50 (second compound 0.0316 µM): 237 nM
- IC50 (second compound 0.1 µM): 261 nM
- IC50 (second compound 0.316 µM): 224 nM
- IC50 (second compound 1 µM): 248 nM
- IC50 (second compound 3.16 µM): 221 nM
- IC50 (second compound 10 µM): 229 nM
- viability, T/C [1]: 97.9%
- viability, T/C [2]: 72.7%
- viability, T/C [3]: 41.9%
- viability, T/C [4]: 34.6%
- viability, T/C [5]: 35.3%
- viability, T/C [6]: 28.8%
- viability, T/C [7]: 104%
- viability, T/C [8]: 74.4%
- viability, T/C [9]: 43.1%
- viability, T/C [10]: 32.9%
- viability, T/C [11]: 30.9%
- viability, T/C [12]: 21.5%
- viability, T/C [13]: 97.1%
- viability, T/C [14]: 80.7%
- viability, T/C [15]: 36.7%
- viability, T/C [16]: 30.3%
- viability, T/C [17]: 30.2%
- viability, T/C [18]: 24.2%
- viability, T/C [19]: 89.6%
- viability, T/C [20]: 89.1%
- viability, T/C [21]: 39.5%
- viability, T/C [22]: 34.3%
- viability, T/C [23]: 32.6%
- viability, T/C [24]: 26.4%
- viability, T/C [25]: 90%
- viability, T/C [26]: 75.1%
- viability, T/C [27]: 38.9%
- viability, T/C [28]: 28.6%
- viability, T/C [29]: 30.1%
- viability, T/C [30]: 28.8%
- viability, T/C [31]: 92.9%
- viability, T/C [32]: 75.8%
- viability, T/C [33]: 40.4%
- viability, T/C [34]: 27.8%
- viability, T/C [35]: 37.1%
- viability, T/C [36]: 25.1%

Structure (SMILES): CC1COCCN1c1cc(C2(O)CC3CCC(C2)O3)c2cnn(-c3ccn[nH]3)c2n1 (stereo not given) + CN(C)c1ccc(Nc2c3ccc(NC(=O)CCN4CCCC4)cc3nc3cc(NC(=O)CCN4CCCC4)ccc23)cc1
- IC50 (second compound 0.0316 µM): 979 nM
- IC50 (second compound 0.1 µM): 1200 nM
- IC50 (second compound 0.316 µM): 959 nM
- IC50 (second compound 1 µM): 1160 nM
- IC50 (second compound 3.16 µM): 1080 nM
- IC50 (second compound 10 µM): 999 nM
- viability, T/C [1]: 96.5%
- viability, T/C [2]: 72.1%
- viability, T/C [3]: 68.3%
- viability, T/C [4]: 49.8%
- viability, T/C [5]: 35.8%
- viability, T/C [6]: 25.6%
- viability, T/C [7]: 103%
- viability, T/C [8]: 78.2%
- viability, T/C [9]: 74.1%
- viability, T/C [10]: 52.6%
- viability, T/C [11]: 33.9%
- viability, T/C [12]: 30.4%
- viability, T/C [13]: 94.8%
- viability, T/C [14]: 82.3%
- viability, T/C [15]: 64.4%
- viability, T/C [16]: 50.3%
- viability, T/C [17]: 37%
- viability, T/C [18]: 30.3%
- viability, T/C [19]: 80.6%
- viability, T/C [20]: 86.2%
- viability, T/C [21]: 75.7%
- viability, T/C [22]: 52%
- viability, T/C [23]: 36.6%
- viability, T/C [24]: 32.4%
- viability, T/C [25]: 85.6%
- viability, T/C [26]: 87.5%
- viability, T/C [27]: 75.5%
- viability, T/C [28]: 49%
- viability, T/C [29]: 39.9%
- viability, T/C [30]: 28.9%
- viability, T/C [31]: 94.9%
- viability, T/C [32]: 76.9%
- viability, T/C [33]: 79.1%
- viability, T/C [34]: 46%
- viability, T/C [35]: 35%
- viability, T/C [36]: 25.4%

Structure (SMILES): CC1COCCN1c1cc(C2(S(C)(=N)=O)CC2)nc(-c2ccnc3[nH]ccc23)n1 (stereo not given) + CN(C)c1ccc(Nc2c3ccc(NC(=O)CCN4CCCC4)cc3nc3cc(NC(=O)CCN4CCCC4)ccc23)cc1
- IC50 (second compound 0.0316 µM): > 10000 nM
- IC50 (second compound 0.1 µM): > 10000 nM
- IC50 (second compound 0.316 µM): > 10000 nM
- IC50 (second compound 1 µM): > 10000 nM
- IC50 (second compound 3.16 µM): > 10000 nM
- IC50 (second compound 10 µM): > 10000 nM
- viability, T/C [1]: 93.8%
- viability, T/C [2]: 90%
- viability, T/C [3]: 92.4%
- viability, T/C [4]: 86.8%
- viability, T/C [5]: 89.7%
- viability, T/C [6]: 65%
- viability, T/C [7]: 97.1%
- viability, T/C [8]: 97.4%
- viability, T/C [9]: 89.9%
- viability, T/C [10]: 94.7%
- viability, T/C [11]: 79.9%
- viability, T/C [12]: 64.4%
- viability, T/C [13]: 93.3%
- viability, T/C [14]: 107%
- viability, T/C [15]: 97.8%
- viability, T/C [16]: 100%
- viability, T/C [17]: 93.4%
- viability, T/C [18]: 64.3%
- viability, T/C [19]: 100%
- viability, T/C [20]: 107%
- viability, T/C [21]: 102%
- viability, T/C [22]: 86.8%
- viability, T/C [23]: 84.5%
- viability, T/C [24]: 67.6%
- viability, T/C [25]: 105%
- viability, T/C [26]: 98.9%
- viability, T/C [27]: 104%
- viability, T/C [28]: 93.5%
- viability, T/C [29]: 88.6%
- viability, T/C [30]: 62.4%
- viability, T/C [31]: 97.3%
- viability, T/C [32]: 98.6%
- viability, T/C [33]: 115%
- viability, T/C [34]: 106%
- viability, T/C [35]: 81.8%
- viability, T/C [36]: 63.7%

Structure (SMILES): COc1ccc([C@@H](O)c2cc(-c3ncnc4cc(N5CCOCC5)ccc34)c(F)cc2Cl)nn1 + CN(C)c1ccc(Nc2c3ccc(NC(=O)CCN4CCCC4)cc3nc3cc(NC(=O)CCN4CCCC4)ccc23)cc1
- IC50 (second compound 0.0316 µM): > 10000 nM
- IC50 (second compound 0.1 µM): > 10000 nM
- IC50 (second compound 0.316 µM): > 10000 nM
- IC50 (second compound 1 µM): > 10000 nM
- IC50 (second compound 3.16 µM): > 10000 nM
- IC50 (second compound 10 µM): > 10000 nM
- viability, T/C [1]: 89.5%
- viability, T/C [2]: 98.3%
- viability, T/C [3]: 89.1%
- viability, T/C [4]: 99.7%
- viability, T/C [5]: 79.5%
- viability, T/C [6]: 83.8%
- viability, T/C [7]: 103%
- viability, T/C [8]: 101%
- viability, T/C [9]: 93.8%
- viability, T/C [10]: 96.1%
- viability, T/C [11]: 88.6%
- viability, T/C [12]: 76.5%
- viability, T/C [13]: 95.7%
- viability, T/C [14]: 92.8%
- viability, T/C [15]: 89.6%
- viability, T/C [16]: 79.8%
- viability, T/C [17]: 84%
- viability, T/C [18]: 86.7%
- viability, T/C [19]: 104%
- viability, T/C [20]: 89.1%
- viability, T/C [21]: 95.7%
- viability, T/C [22]: 91.2%
- viability, T/C [23]: 86%
- viability, T/C [24]: 76.4%
- viability, T/C [25]: 94.9%
- viability, T/C [26]: 108%
- viability, T/C [27]: 92.6%
- viability, T/C [28]: 81.1%
- viability, T/C [29]: 76%
- viability, T/C [30]: 79.1%
- viability, T/C [31]: 92.2%
- viability, T/C [32]: 77%
- viability, T/C [33]: 93.7%
- viability, T/C [34]: 71.9%
- viability, T/C [35]: 86.4%
- viability, T/C [36]: 73.4%
